Results from patent US7385039B2, “Methods and compositions for regulating imidazoline receptors” (priority 1998, dated 2008).
“And” between values parts separate entries of the source, which are not always exact repeats. Identical values can stand only once. “Also recorded” adds a separate entry of the source. Like-named read-outs stand apart in the source and are kept apart here. Values belong to the compound of their own block, whether it stands above or below them.

Assays:
[1] = tested on: I3R; test: I3R model: insulin release from rat islets of Langerhans; assay type: cell-based
Protocol: (§1) Islets of Langerhans from male Wistar rats were isolated by collagenase digestion in a medium of bicarbonate-buffered physiological saline solution containing 4 mM D-glucose and 1 mM CaCl2. Islets were selected under a binocular dissecting microscope and were used within two hours of isolation. Islets from humans were isolated from heart-beating cadaver organ donors by collagenase digestion and density gradient centrifugation (Chan, S. L. F., et al., 1997, Brit. J. Pharmacol. 120:926-932).
Incubations were done in 96-well plates. Isolated islets were incubated in 100 μl buffer solution supplemented with bovine serum albumin in humidified air: CO2 (95:5%) at 37° C. in the presence of test agents. To eliminate any potential alpha-2 responses, yohimbine (10 μM), a potent alpha2-adrenergic blocker, was included in all incubations. After 60 min incubation, samples of medium were removed for measurement of insulin release by radioimmunoassay using anti-bovine insulin antiserum. Presence of insulin in the test media were compared to controls; positive differences represented amounts of insulin released. In reversal experiments, diazoxide (e.g., 200 μM) was pre-incubated to block glucose-induced insulin release. In these studies, test reagents were used to determine if they were capable of overcoming diazoxide's inhibitory effects on K+ ATP channels, a well known action of imidazoline secretagogues in islet cells. For example, efaroxan (an inhibitor of I-1 responses in adrenal medullary cells) is a well known I-3 agonist, i.e., it stimulates (at 100 μM) release of insulin and overcomes diazoxide inhibition thus illustrating again the dictomy between I1 and I3 receptor subtypes.
I3R model: Insulin release from pancreas (Eglen, R. M., Hudson, A. L., Kendall, D. A., Nutt, D. J., Morgan, N. G., Wilson, V. G. & Dillon, M. P. (1998) TIPS 19, 381-390; Chan, S. L. F. (1998) Gen. Pharmacol. 31, 525-529; Morgan, N. G. (1999) Exp. Opin. Invest. Drugs 8, 575-584). Islets of Langerhans from male Wistar rats or human pancreata were isolated by collagenase digestion. Hand-picked islets were incubated in NaHCO3-buffered saline containing 1 mM CaCl2, 1 mg/ml BSA and test reagents. After incubation, insulin levels in supernatants were analyzed by RIA. The I3-blocker, KU-14R, served to verify I3R function.

[2] = target: Imidazoline I Sites; test: [125I]p-iodoclonidine competition binding to bovine RVLM membranes, imidazoline sites
Text: (§2) Whole bovine brains and adrenal glands were obtained from a local slaughterhouse. Brains were immediately placed on a chilled glass plate, washed with ice-cold Krebs'-Henseleit buffer, and dissected. The rostral medulla was isolated by transecting the brainstem rostrally at the posterior margin of the trapezoid body and caudally 1 cm caudal to the obex. The pia-arachnoid was removed, and the lateral medulla was isolated by a sagittal section through the lateral margin of the pyramids, and then bisected. The ventral half was defined as the ventrolateral medulla (VLM). Brain samples were transported on ice to the laboratory and processed immediately.
(§3) Fresh bovine VLM was homogenized by using a polytron (Tekmar Tissuemizer, setting 80 for 2×15 sec) in 20 volumes of ice-cold Hepes-buffered isotonic sucrose (pH brought to 7.4 with Tris base) containing the protease inhibitors (1,10)-phenanthroline (100 μM) and phenylmethylsulfonyl fluoride (50 μM) in order to inhibit degradation of receptor protein. Bovine adrenomedullary cells were homogenized in 15 ml Hepes-buffered isotonic sucrose by 10 strokes in a glass-glass hand-held homogenizer. All three homogenates were centrifuged at 1000×g for 5 min at 4° C. to remove nuclei and debris. The pellets (P1) were resuspended in 20 ml of homogenization buffer, and centrifuged again at 1000×g for 5 min. The combined supernatants were centrifuged at 48,000 g for 18 min at 4° C., and the resulting P2 pellet was resuspended in 10 to 25 volumes of 50 mM Tris-HCl buffer (pH 7.7) containing 5 mM EDTA. After recentrifugation at 48,000 g for 18 min, the resulting membrane pellet was resuspended in Tris-HCl containing 25 mM NaCl, preincubated for 30 min at 25° C., chilled on ice, centrifuged again, resuspended a final time in Tris-HCl alone, centrifuged, flash-frozen, and stored at −70° C. for up to three months.
(§4) Radioligand binding assays with [^3H]clonidine or [^125I]p-iodoclonidine for determination of specific membrane binding to VLM and renal medulla imidazoline sites and α2-adrenergic receptors were performed by a modification of methods previously described (Ernsberger P. et al., 1997, J. Hypertension 1997, 15:S9-S23). Membranes were slowly thawed and resuspended in Tris-Hepes buffer (5.0 mM; pH 7.7 at 25° C., containing 0.5 mM EDTA, 0.5 mM EGTA, and 0.5 mM MgCl2) at a concentration of 1 mg protein/ml for the VLM, 4 mg protein/ml for the renal medulla, and 0.2 mg protein/ml for adrenomedullary cells. Assays were conducted in a total volume of 250 μl in polypropylene 96-well plates (Beckman Macrowell), and each well contained 125 μl membrane suspension, 25 μl radioligand, and 100 μl drug or vehicle. Incubations were initiated by the addition of membrane and were carried out for 30 min at 22° C. Nonspecific binding was defined in the presence of 10 μM BDF-6143, an imidazoline adrenergic agent. Specific α2-adrenergic binding was defined by inhibition with (−)epinephrine (0.1 mM). In experiments using catecholamines, all samples contained ascorbic acid in a final concentration of 0.001%. Incubations were terminated by vacuum filtration using a cell harvester (Brandel) equipped with Teflon tubing to reduce absorption of the radioligand over glass fiber filters (Schleicher & Schuell #34) which were preincubated for 4 h at 4° C. in 0.03% polyethylimine to reduce nonspecific binding to the filter. The filters were washed four times with 5 ml ice-cold Tris-HCl, placed in scintillation vials, covered with 4 ml scintillation cocktail (BioSafe II, Research Products International), and counted at 50% efficiency (Beckman LS5801). Protein was assayed by the bicinchoninic acid method.
(§5) Data were obtained as dpm and transferred to the Equilibrium Binding Data Analysis (EBDA) program for initial processing; 4 to 10 experiments were analyzed simultaneously by using the LIGAND program for nonlinear curve-fitting. Protein assay data were also analyzed by nonlinear curve-fitting.
(§6) Competition binding assays. […]

[3] = tested on: SH rats; test: Mean arterial pressure and heart rate after microinjection into the RVLM of rats; assay type: in vivo, rat; conditions: SH rats
Protocol: Effects of ribotide on mean arterial pressure (MAP) and heart rate (HR). Bilateral I-4-AA-RP microinjections (60 nl, 100 nmol) into the RVLM of SH rats were performed (Emsberger, P. & Haxhiu, M. A. (1997) Am. J. Physiol. 273, R1572-R1579) after the sympatho-excitatory area was confirmed by showing glutamate-induced MAP elevation ≧30 mm Hg. MAP and HR values were measured every 5 min. After each experiment, the injection site was marked by infusion of rhodamine microspheres. Changes were assessed relative to baseline values by two-way repeated measures ANOVA and Dunnett's test. A second group of SH rats (injection controls) received vehicle injections to control for injection effects and for volume artifacts due to multiple injections. Vehicle contained 2 nmol rilmenidine, a sub-threshold dose, far below that known to cause any detectable effect (Gomez, R. E., Emsberger, P., Feinland, G. & Reis, D. J. (1991) Eur. J. Pharmacol. 195, 181-191). In a follow-up study, SH rats (N=6) were given I-4-AA-RP then moxonidine. When used alone, it reduces MAP to normotensive levels (Emsberger, P., Elliott, H. L., Weimann, H.-J., Raap, A., Haxhiu, M. A., Hofferber, E., Low-Kroger, A., Reid, J. L. & Mest, H. J. (1993) Cardiovas. Drug Rev. 11, 411-431).

[4] = tested on: I1R; test: I1R model: [3H]arachidonic acid release from PC-12 cells; assay type: cell-based; conditions: for stimulation of [3H]AA release (in words): IAA-R 10 μM-1 mM
Protocol: Assays for measuring imidazoline receptor-mediated arachidonic acid release from PC12 cells is as described in Ernsberger et al., (1995, FASEB J. 9:A114).
I1R model: [^3H]Arachidonic acid (AA) release from PC-12 cells. Assays (Emsberger, P. (1998) J. Auton. Nerv. Syst. 72, 147-154 Ernsberger, P. (1998) J. Auton. Nerv. Syst. 72, 147-154) were done after a 30 min washout to attain a stable background. Cells were superfused with 0.01% BSA in Krebs buffer for seven 1-min fractions (baseline), then treated with 10 μM or 100 μM I-4-AA-RP alone, or together with efaroxan (10 μM), a prototypical I1-antagonist/I3-agonist. Controls included baseline release with vehicle alone (0-7 min) or vehicle containing efaroxan (5 min) before adding I-4-AA-RP. [^3H]products (>98% AA) collected in each 1-min fraction were expressed as fractional release defined as % total radioactivity incorporated into cells, corrected for [^3H]AA previously released (Ernsberger, P. (1998) J. Auton. Nerv. Syst. 72, 147-154).

[5] = tested on: I3R; test: I3R model: insulin release from human islets; assay type: cell-based
Protocol: as §1
Incubations were done in 96-well plates. Isolated islets were incubated in 100 μl buffer solution supplemented with bovine serum albumin in humidified air: CO2 (95:5%) at 37° C. in the presence of test agents. To eliminate any potential alpha-2 responses, yohimbine (10 μM), a potent alpha2-adrenergic blocker, was included in all incubations. After 60 min incubation, samples of medium were removed for measurement of insulin release by radioimmunoassay using anti-bovine insulin antiserum. […]
I3R model: Insulin release from pancreas (Eglen, R. M., Hudson, A. L., Kendall, D. A., Nutt, D. J., Morgan, N. G., Wilson, V. G. & Dillon, M. P. (1998) TIPS 19, 381-390; Chan, S. L. F. (1998) Gen. Pharmacol. 31, 525-529; Morgan, N. G. (1999) Exp. Opin. Invest. Drugs 8, 575-584). […] After incubation, insulin levels in supernatants were analyzed by RIA. […]

[6] = tested on: α2-Adrenergic Sites; test: [125I]p-iodoclonidine competition binding to bovine RVLM membranes, α2-adrenergic sites; conditions: for Ki: read-out: Ki, α2-Adrenergic Sites (low affinity sites)
Text: as §2, §3, §4, §5, §6

[7] = tested on: β-TC3 cells; test: Insulin release from insulinoma cells in culture; assay type: cell-based
[8] = With cimetidine (I-sites masked)

- Ki ([2]; bovine RVLM membranes, [125I]PIC, read-out: K1 in RVLM, parallel assays): 266 ± 48 µM
SMILES: O=C(O)Cc1cn([C@@H]2O[C@H](CO)[C@@H](O)[C@H]2O)cn1 [IAA-R, 1-(β-D-ribofuranosyl)-imidazole-4-acetic acid]
- reversal of the inhibitory action of diazoxide on glucose-induced insulin release [1]: able to reverse the inhibitory action of diazoxide
- activity relative to IAA-RP's maximal activity on insulin release ([1]; paired experiment, pancreatic beta cells): < 50%
- stimulation of insulin release (in words) ([1]; rat islets): potent stimulants of insulin release
- change of heart rate (HR) ([3]; 100 nmol into RVLM): did not alter MAP or HR significantly
- effect on MAP (in words) ([3]; 100 nmol into RVLM): did not alter MAP or HR significantly
- stimulation of [3H]AA release (in words) [4]: no significant response

- EC50 [5]: ~0.003 µM
- EC50 ([1]; rat islets, glucose 20 mM and diazoxide 200 μM): 0.03 to 0.05 µM
- Percent Sites, α2-Adrenergic Sites ([6]; Control (no masking ligand)): 29 ± 5%
- Ki ([6]; Control (no masking ligand)): 57 ± 33 µM
- Percent Sites, α2-Adrenergic Sites [6, 8]: 100 ± 10%
- Ki [6, 8]: 210 ± 32 µM
- Percent Sites, α2-Adrenergic Sites ([6]; With epinephrine (α2Rs masked)): 14 ± 4%
- Ki ([6]; With epinephrine (α2Rs masked)): 60 ± 48 µM
- fold lower affinity of remaining (low affinity) sites versus high affinity component ([6]; no masking ligands): > 300 fold
- affinity of high-affinity RVLM sites relative to low-affinity RVLM sites and adrenal I1R sites [2]: > 100 fold
- fold greater affinity than IAA-R in displacing [125I]p-iodoclonidine [2]: > 100 fold
- Percent Sites, Imidazoline I Sites (high affinity component) ([2]; Control (no masking ligand)): 71% and 71±5%
- Ki ([2]; Control (no masking ligand), read-out: Ki, Imidazoline I Sites): 0.16 ± 0.038 µM
- selectivity for I-Rs over α2-sites ([2]; RVLM): > 1000 fold
- Percent Sites, Imidazoline I Sites (high affinity component) ([2]; With epinephrine (α2Rs masked)): 86% and 86±4%
- Ki ([2]; With epinephrine (α2Rs masked), read-out: Ki, Imidazoline I Sites): 0.1 ± 0.019 µM
SMILES: O=C(O)Cc1cn(C2OC(COP(=O)(O)O)C(O)C2O)cn1 [IAA-RP, 1-(β-D-ribofuranosyl)-imidazole-4-acetic acid 5′ phosphate]
- reversal of the inhibitory action of diazoxide on glucose-induced insulin release [1]: overcame inhibitory effects of the KATP-channel agonist, diazoxide
- reversal of the inhibitory action of diazoxide on glucose-induced insulin release ([1]; listed as tele-linked IAA-RP): able to reverse the inhibitory action of diazoxide
- stimulation of insulin release (in words) ([1]; rat islets): potent stimulants of insulin release; also recorded: increased insulin secretion from islets; also recorded: far more potent than efaroxan
- rise of MAP over baseline ([3]; 100 nmol bilateral microinjection into RVLM): ~25 mm Hg
- change of heart rate (HR) ([3]; 100 nmol into RVLM): no significant changes
- MAP elevation above baseline ([3]; after six 100 nmol doses): 20.4±5.6%
- increase of [3H]AA release ([4]; 10 μM): 68±29%
- increase of [3H]AA release ([4]; 100 μM): 177±89%
- stimulation of [3H]AA release (in words) [4]: stimulated release of arachidonic acid
- stimulation of insulin release [7]: capable of stimulating insulin release

SMILES: CCC1(c2ncc[nH]2)Cc2ccccc2O1 (stereo not shown) [KU-14R, reference compound]
- blockade of IAA-RP-induced insulin secretion ([1]; KU-14R 100 μM, IAA-RP 1 μM, diazoxide 200 μM): abolished IAA-RP-induced secretion
